One test has as its target CYP3A4(BFC) (Homo sapiens, UniProt P08684). The test is described as follows: CYP3A4(BFC) inhibition. In kind it is in vitro ADME. Particulars: CYP3A4, substrate BFC; read-out: Cyp IC50 3A4(BFC). In a few lines:
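This fluorescence assay tracks how test compounds reduce CYP3A4 turnover of BFC, with enzyme and substrate from BD Biosciences. A 10-point 1:1 dilution series in cofactor mix (1.3% NADPH Regeneration Solution A, 1.04% Solution B, 5% acetonitrile, 0.05% DMSO) was dispensed at 10 μL into 384 well plates, preincubated 10 minutes at 37° C, then incubated 30 min and read on a Tecan Safire 2.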

The target in a further test is CYP2C9 (Homo sapiens, UniProt P11712). The test is described as follows: CYP2C9 inhibition (fluorescent substrate MFC). In kind it is in vitro ADME. Particulars: read-out: Cyp IC50 2C9. In a few lines: (§1)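 10-pt 1:1 dilution series (from 100 mM DMSO stock) in NADPH regen cofactor mix, 5% MeCN; 10 min preincubation at 37 °C. Enzyme reaction 37 °C: 1A2 15 min, 2C9 45 min, 2C19/2D6 30 min. Fluorescence readout; IC50 fit.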

A further test deals with CYP2C19 (Homo sapiens, UniProt P33261). The test is described as follows: CYP2C19 inhibition (fluorescent substrate CEC). The class given is in vitro ADME. The conditions noted are these: read-out: Cyp IC50 2C19. In a few lines: as §1
A further test addresses CYP2D6 (Homo sapiens, UniProt P10635). The test is described as follows: CYP2D6 inhibition (fluorescent substrate AMMC). The class given is in vitro ADME. The conditions noted are these: read-out: Cyp IC50 2D6. In outline:
as §1

In another test the target is TrkA kinase (Homo sapiens, UniProt P04629). The test is described as follows: TrkA kinase biochemical activity assay (AlphaScreen). The conditions noted are these: 100 μM ATP; read-out: Biochemical Inhibition IC50 TrkA. In a few lines:
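IC50 values come from AlphaScreen PY20/streptavidin bead signal versus compound concentration. Kinase reaction: 1 ng/well TrkA, 100 μM ATP, 30 nM biotin-(E4Y)10 substrate, Mn2+-containing Hepes buffer pH 7.5, 5% DMSO, 40 min, room temperature; TrkC assayed by the same approach.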
A general note: In Alpha technology, singlet oxygen from a donor bead excites a nearby acceptor bead.

CYP2C9, sequence (P11712 whole entry): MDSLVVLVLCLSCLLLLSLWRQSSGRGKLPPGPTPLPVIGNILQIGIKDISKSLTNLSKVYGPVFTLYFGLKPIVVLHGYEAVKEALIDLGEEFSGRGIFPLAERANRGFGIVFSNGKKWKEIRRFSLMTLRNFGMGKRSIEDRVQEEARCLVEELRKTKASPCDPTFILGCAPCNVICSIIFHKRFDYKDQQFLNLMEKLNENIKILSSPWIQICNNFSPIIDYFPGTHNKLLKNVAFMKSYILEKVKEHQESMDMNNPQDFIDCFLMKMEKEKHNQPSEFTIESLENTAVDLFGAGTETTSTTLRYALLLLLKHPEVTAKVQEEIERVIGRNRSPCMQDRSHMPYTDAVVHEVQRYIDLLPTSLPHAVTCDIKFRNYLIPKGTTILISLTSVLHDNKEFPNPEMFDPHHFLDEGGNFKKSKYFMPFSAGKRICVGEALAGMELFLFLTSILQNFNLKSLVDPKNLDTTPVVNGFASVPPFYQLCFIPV
TrkA kinase, sequence (P04629 33-796): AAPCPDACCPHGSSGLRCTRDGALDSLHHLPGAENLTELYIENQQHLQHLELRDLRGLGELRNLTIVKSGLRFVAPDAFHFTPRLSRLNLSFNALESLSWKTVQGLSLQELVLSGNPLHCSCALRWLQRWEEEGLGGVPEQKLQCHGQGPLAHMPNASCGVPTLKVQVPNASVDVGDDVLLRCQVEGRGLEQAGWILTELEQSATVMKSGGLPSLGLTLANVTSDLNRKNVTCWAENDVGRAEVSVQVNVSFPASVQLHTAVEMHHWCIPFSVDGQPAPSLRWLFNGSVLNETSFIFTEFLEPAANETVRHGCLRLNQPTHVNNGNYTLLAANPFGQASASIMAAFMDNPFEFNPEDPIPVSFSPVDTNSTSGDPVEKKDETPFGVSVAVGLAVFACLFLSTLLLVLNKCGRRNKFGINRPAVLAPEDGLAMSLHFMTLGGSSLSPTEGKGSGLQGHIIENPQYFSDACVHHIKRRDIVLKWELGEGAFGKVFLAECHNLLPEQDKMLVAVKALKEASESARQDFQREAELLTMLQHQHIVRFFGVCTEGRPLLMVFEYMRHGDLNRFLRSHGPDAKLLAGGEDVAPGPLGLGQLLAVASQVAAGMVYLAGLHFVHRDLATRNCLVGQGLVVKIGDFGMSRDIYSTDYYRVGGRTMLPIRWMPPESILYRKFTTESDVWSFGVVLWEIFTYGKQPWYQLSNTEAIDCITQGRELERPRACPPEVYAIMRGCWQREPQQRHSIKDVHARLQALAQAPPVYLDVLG
CYP2C19, sequence (P33261 whole entry): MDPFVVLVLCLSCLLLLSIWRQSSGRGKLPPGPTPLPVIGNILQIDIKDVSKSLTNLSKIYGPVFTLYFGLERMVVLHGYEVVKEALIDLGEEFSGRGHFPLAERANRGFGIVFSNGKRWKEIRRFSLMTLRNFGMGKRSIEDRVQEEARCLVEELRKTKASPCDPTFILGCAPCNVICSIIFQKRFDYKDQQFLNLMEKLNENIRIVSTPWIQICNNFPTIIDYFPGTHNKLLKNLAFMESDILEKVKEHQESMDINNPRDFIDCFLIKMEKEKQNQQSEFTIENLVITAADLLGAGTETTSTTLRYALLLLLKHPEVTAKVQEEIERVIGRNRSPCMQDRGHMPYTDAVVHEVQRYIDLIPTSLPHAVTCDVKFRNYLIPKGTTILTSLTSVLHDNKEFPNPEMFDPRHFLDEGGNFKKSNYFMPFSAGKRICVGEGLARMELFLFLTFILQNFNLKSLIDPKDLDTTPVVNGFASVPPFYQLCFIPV
CYP3A4(BFC), sequence (P08684 whole entry): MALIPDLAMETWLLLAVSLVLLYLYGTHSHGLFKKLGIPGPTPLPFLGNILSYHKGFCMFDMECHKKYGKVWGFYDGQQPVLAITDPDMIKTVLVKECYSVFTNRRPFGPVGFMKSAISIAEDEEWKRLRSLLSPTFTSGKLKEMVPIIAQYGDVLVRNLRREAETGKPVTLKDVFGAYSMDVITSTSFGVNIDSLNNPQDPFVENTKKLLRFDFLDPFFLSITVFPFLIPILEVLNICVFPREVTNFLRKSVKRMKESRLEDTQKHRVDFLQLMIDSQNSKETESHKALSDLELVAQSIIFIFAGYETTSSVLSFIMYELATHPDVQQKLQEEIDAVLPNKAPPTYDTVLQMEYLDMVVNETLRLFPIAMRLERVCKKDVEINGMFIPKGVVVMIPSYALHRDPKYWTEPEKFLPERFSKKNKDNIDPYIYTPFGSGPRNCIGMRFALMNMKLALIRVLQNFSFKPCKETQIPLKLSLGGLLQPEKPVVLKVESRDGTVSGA
CYP2D6, sequence (P10635 whole entry): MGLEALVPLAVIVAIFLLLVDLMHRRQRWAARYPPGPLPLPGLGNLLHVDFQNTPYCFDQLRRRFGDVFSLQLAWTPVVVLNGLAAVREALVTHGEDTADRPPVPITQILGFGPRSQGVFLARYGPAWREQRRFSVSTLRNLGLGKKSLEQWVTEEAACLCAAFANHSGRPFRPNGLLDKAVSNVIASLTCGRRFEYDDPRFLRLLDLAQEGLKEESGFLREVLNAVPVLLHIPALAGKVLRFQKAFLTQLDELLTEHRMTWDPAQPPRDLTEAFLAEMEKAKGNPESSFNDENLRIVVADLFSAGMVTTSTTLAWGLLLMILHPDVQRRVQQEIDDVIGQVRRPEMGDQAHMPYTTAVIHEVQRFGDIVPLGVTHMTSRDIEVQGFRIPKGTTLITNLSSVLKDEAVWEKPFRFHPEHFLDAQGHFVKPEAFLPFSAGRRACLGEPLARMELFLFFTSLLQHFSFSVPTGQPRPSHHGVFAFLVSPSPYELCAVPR

As for `COCCCNc1ncnc2[nH]cc(C(=O)c3ccc(Nc4ccc(OC)nc4)nc3F)c12` [Compound P-4079, [2-fluoro-6-[(6-methoxy-3-pyridyl)amino]-3-pyridyl]-[4-(3-methoxypropylamino)-7H-pyrrolo[2,3-d]pyrimidin-5-yl]methanone], the IC50 (usually the concentration that inhibits the measured activity by half) on CYP3A4(BFC) was more than 10 µM; on CYP2C9, more than 10 µM; on CYP2C19, 5 to 10 µM; at CYP2D6, more than 10 µM; on TrkA kinase, less than 0.01 µM.
Turning to `CCCCNc1ncnc2[nH]cc(C(=O)c3ccc(Nc4ccc(OC)nc4)nc3F)c12` [Compound P-4080, [4-(butylamino)-7H-pyrrolo[2,3-d]pyrimidin-5-yl]-[2-fluoro-6-[(6-methoxy-3-pyridyl)amino]-3-pyridyl]methanone], the half-maximal inhibitory concentration (IC50) at CYP3A4(BFC) was more than 10 µM; on CYP2C9 it was more than 10 µM; at CYP2C19, more than 10 µM; on CYP2D6, more than 10 µM; at TrkA kinase, less than 0.01 µM.
Regarding `CCNc1ncnc2[nH]cc(C(=O)c3ccc(Nc4ccc(OC)nc4)nc3F)c12` [Compound P-4081, [4-(ethylamino)-7H-pyrrolo[2,3-d]pyrimidin-5-yl]-[2-fluoro-6-[(6-methoxy-3-pyridyl)amino]-3-pyridyl]methanone], the IC50 is more than 10 µM at CYP3A4(BFC); more than 10 µM at CYP2C9; more than 10 µM on CYP2C19; more than 10 µM at CYP2D6; less than 0.01 µM at TrkA kinase.
`COc1ccc(Nc2ccc(C(=O)c3c[nH]c4ncnc(NC5CCCCC5)c34)c(F)n2)cn1` [Compound P-4082, [4-(cyclohexylamino)-7H-pyrrolo[2,3-d]pyrimidin-5-yl]-[2-fluoro-6-[(6-methoxy-3-pyridyl)amino]-3-pyridyl]methanone]: the IC50 at CYP3A4(BFC) was more than 10 µM; on CYP2C9, more than 10 µM; on CYP2C19, more than 10 µM; on CYP2D6, more than 10 µM; at TrkA kinase, less than 0.01 µM.
Turning to `CNc1ncnc2[nH]cc(C(=O)c3ccc(Nc4ccc(OC)nc4)nc3F)c12` [Compound P-4083, [2-fluoro-6-[(6-methoxy-3-pyridyl)amino]-3-pyridyl]-[4-(methylamino)-7H-pyrrolo[2,3-d]pyrimidin-5-yl]methanone], the IC50 on CYP3A4(BFC) is more than 10 µM; on CYP2C9 it was more than 10 µM; on CYP2C19, more than 10 µM; on CYP2D6, more than 10 µM; at TrkA kinase, less than 0.01 µM.
As to `COc1ccc(Nc2ccc(C(=O)c3c[nH]c4ncnc(NCC(F)(F)F)c34)c(F)n2)cn1` [Compound P-4084, [2-fluoro-6-[(6-methoxy-3-pyridyl)amino]-3-pyridyl]-[4-(2,2,2-trifluoroethylamino)-7H-pyrrolo[2,3-d]pyrimidin-5-yl]methanone], the IC50 at CYP3A4(BFC) was more than 10 µM; at CYP2C9, more than 10 µM; on CYP2C19, 5 to 10 µM; on CYP2D6, more than 10 µM; on TrkA kinase, less than 0.01 µM.
On to `O=C(c1ccc(NC2CCC(F)(F)CC2)nc1)c1c[nH]c2ncnc(NCC(F)(F)F)c12` [Compound P-4087, [6-[(4,4-difluorocyclohexyl)amino]-3-pyridyl]-[4-(2,2,2-trifluoroethylamino)-7H-pyrrolo[2,3-d]pyrimidin-5-yl]methanone], for which the concentration for half-maximal inhibition (IC50) at CYP3A4(BFC) was more than 10 µM; on CYP2C9, more than 10 µM; on CYP2C19, more than 10 µM; at CYP2D6, more than 10 µM; on TrkA kinase it was less than 0.01 µM.
`O=C(c1ccc(NC2CCC(F)(F)CC2)nc1)c1c[nH]c2ncnc(NC3CC3)c12` [Compound P-4088, [4-(cyclopropylamino)-7H-pyrrolo[2,3-d]pyrimidin-5-yl]-[6-[(4,4-difluorocyclohexyl)amino]-3-pyridyl]methanone]: the IC50 at CYP3A4(BFC) is more than 10 µM; at CYP2C9 it was more than 10 µM; on CYP2C19 it was more than 10 µM; at CYP2D6 it was more than 10 µM; at TrkA kinase, less than 0.01 µM.
As for `CNc1ncnc2[nH]cc(C(=O)c3ccc(NC4CCC(F)(F)CC4)nc3)c12` [Compound P-4089, [6-[(4,4-difluorocyclohexyl)amino]-3-pyridyl]-[4-(methylamino)-7H-pyrrolo[2,3-d]pyrimidin-5-yl]methanone], the IC50 on CYP3A4(BFC) is more than 10 µM; on CYP2C9, more than 10 µM; at CYP2C19, more than 10 µM; at CYP2D6, more than 10 µM; at TrkA kinase it was less than 0.1 µM.
In the case of `O=C(c1ccc(Nc2ccc(C3CC3)nc2)nc1F)c1c[nH]c2ncnc(NCC(F)(F)F)c12` [Compound P-4090, [6-[(6-cyclopropyl-3-pyridyl)amino]-2-fluoro-3-pyridyl]-[4-(2,2,2-trifluoroethylamino)-7H-pyrrolo[2,3-d]pyrimidin-5-yl]methanone], the half-maximal inhibitory concentration (IC50) was more than 10 µM on CYP3A4(BFC); more than 10 µM on CYP2C9; more than 10 µM on CYP2C19; more than 10 µM on CYP2D6; less than 0.1 µM at TrkA kinase.
As for `O=C(c1ccc(Nc2ccc(C(F)(F)F)nc2)nc1F)c1c[nH]c2ncnc(NC3CC3)c12` [Compound P-4091, [4-(cyclopropylamino)-7H-pyrrolo[2,3-d]pyrimidin-5-yl]-[2-fluoro-6-[[6-(trifluoromethyl)-3-pyridyl]amino]-3-pyridyl]methanone], the IC50 is more than 10 µM at CYP3A4(BFC); more than 10 µM on CYP2C9; more than 10 µM at CYP2C19; more than 10 µM on CYP2D6; less than 0.01 µM at TrkA kinase.
With `CNc1ncnc2[nH]cc(C(=O)c3ccc(Nc4ccc(C(F)(F)F)nc4)nc3F)c12` [Compound P-4092, [2-fluoro-6-[[6-(trifluoromethyl)-3-pyridyl]amino]-3-pyridyl]-[4-(methylamino)-7H-pyrrolo[2,3-d]pyrimidin-5-yl]methanone], the half-inhibitory concentration (IC50) is more than 10 µM at CYP3A4(BFC); less than 5 µM on CYP2C9; less than 5 µM at CYP2C19; less than 5 µM at CYP2D6; less than 0.01 µM on TrkA kinase.
Take `O=C(c1ccc(Nc2ccc(C3CC3)nc2)nc1F)c1c[nH]c2ncnc(NC3CC3)c12` [Compound P-4093, [4-(cyclopropylamino)-7H-pyrrolo[2,3-d]pyrimidin-5-yl]-[6-[(6-cyclopropyl-3-pyridyl)amino]-2-fluoro-3-pyridyl]methanone]: the half-maximal inhibitory concentration (IC50) on CYP3A4(BFC) is more than 10 µM; at CYP2C9, more than 10 µM; on CYP2C19 it was more than 10 µM; on CYP2D6 it was more than 10 µM; on TrkA kinase, less than 0.01 µM.
`CNc1ncnc2[nH]cc(C(=O)c3ccc(Nc4ccc(C5CC5)nc4)nc3F)c12` [Compound P-4094, [6-[(6-cyclopropyl-3-pyridyl)amino]-2-fluoro-3-pyridyl]-[4-(methylamino)-7H-pyrrolo[2,3-d]pyrimidin-5-yl]methanone]: the IC50 is more than 10 µM on CYP3A4(BFC); less than 5 µM at CYP2C9; less than 5 µM at CYP2C19; less than 5 µM on CYP2D6; less than 0.01 µM on TrkA kinase.
Regarding `CCc1ccc(Nc2ccc(C(=O)c3c[nH]c4ncnc(NC5CCC5)c34)c(F)n2)cn1` [Compound P-4095, [4-(cyclobutylamino)-7H-pyrrolo[2,3-d]pyrimidin-5-yl]-[6-[(6-ethyl-3-pyridyl)amino]-2-fluoro-3-pyridyl]methanone], the 50% inhibitory concentration (IC50) was more than 10 µM on CYP3A4(BFC); more than 10 µM on CYP2C9; more than 10 µM on CYP2C19; more than 10 µM at CYP2D6; less than 0.01 µM at TrkA kinase.
In the case of `CCc1ccc(Nc2ccc(C(=O)c3c[nH]c4ncnc(NC5CCC(F)(F)CC5)c34)c(F)n2)cn1` [Compound P-4096, [4-[(4,4-difluorocyclohexyl)amino]-7H-pyrrolo[2,3-d]pyrimidin-5-yl]-[6-[(6-ethyl-3-pyridyl)amino]-2-fluoro-3-pyridyl]methanone], the IC50 at CYP3A4(BFC) was more than 10 µM; at CYP2C9, less than 5 µM; at CYP2C19, less than 5 µM; at CYP2D6, less than 5 µM; on TrkA kinase, less than 0.1 µM.
As for `CCc1ccc(Nc2ccc(C(=O)c3c[nH]c4ncnc(N[C@@H](C)c5ccc(F)cc5)c34)c(F)n2)cn1` [Compound P-4097, [6-[(6-ethyl-3-pyridyl)amino]-2-fluoro-3-pyridyl]-[4-[[(1S)-1-(4-fluorophenyl)ethyl]amino]-7H-pyrrolo[2,3-d]pyrimidin-5-yl]methanone], the IC50 at CYP3A4(BFC) was more than 10 µM; at CYP2C9 it was less than 5 µM; at CYP2C19, less than 5 µM; on CYP2D6 it was less than 5 µM; on TrkA kinase, less than 0.1 µM.
Regarding `CCc1ccc(Nc2ccc(C(=O)c3c[nH]c4ncnc(NCCCOC)c34)c(F)n2)cn1` [Compound P-4098, [6-[(6-ethyl-3-pyridyl)amino]-2-fluoro-3-pyridyl]-[4-(3-methoxypropylamino)-7H-pyrrolo[2,3-d]pyrimidin-5-yl]methanone], the IC50 on CYP3A4(BFC) is more than 10 µM; on CYP2C9, less than 5 µM; at CYP2C19, less than 5 µM; at CYP2D6, less than 5 µM; at TrkA kinase, less than 0.01 µM.

For the origin of these results see patent publication US8901118B2, “Compounds and methods for kinase modulation, and indications therefor” (Plexxikon Inc., priority 2010, dated 2014).
